Test results from US20110212909A1, “Use of Ginsenoside Compound K in the Preparation of a Medicament for the Prevention and Treatment of Atherosclerosis” (priority 2008, published 2011).
Marks after values point to notes of the source that are not given here.

Legend:
apo E−/− mouse = assay: Blood fat assay in serum of apo E−/− mice on Western Diet; type: in vivo; conditions: for HDL-C in serum / LDL-C in serum / TC in serum / TC-HDL/HDL / TG in serum: 15 weeks
Experimental: (§1) 80 healthy clean grade C57BL/6J apo E^−/^− mice of 10 weeks old, wherein male and female mice were fifty-fifty, weight 20-22 g, were breed and divided into individual cage in sterile laminar flow rack, allowing mice to freely drink water and get food. Mice were raised for 30 weeks by “Western Diet” (routine mouse feed +0.15% cholesterol +21% fat) high fat feed (^60cobalt sterilization radiation treatment), with raising conditions being SPF grade, room temperature maintained at 24° C., relative humidity of 50%, and lighting time of 7: 30-19: 30. Animal house was sterilized by ultraviolet lamp once every two days, in order to maintain sterile environment of laminar flow rack (establishment of animal model of atherosclerosis refers to reference: Barish G D, Atkins A R, Downes M, Olson P, Chong L W, Nelson M, Zou Y H, Hwang H S, Kang H J, Curtiss L, Evans R M, Lee C H. PPARδ regulates multiple proinflammatory pathways to suppress atherosclerosis. Proc Natl Acad Sci, 2008, 105 (11): 4271-4276.).
5 mice of apo E^−/^− mice raised for 15 weeks were randomly selected and sacrificed, root of aorta of which was taken, and replication condition in AS model was observed by HE staining. The remaining mice were randomly divided into 5 groups as follows (n=15):
A. model group: vehicle; B. ginsenoside compound K low dose group: ginsenoside compound K 12.5 mg/kg/day; C. ginsenoside compound K middle dose group: ginsenoside compound K 25.0 mg/kg/day; D. ginsenoside compound K high dose group: ginsenoside compound K 50.0 mg/kg/day; E. simvastatin control group: simvastatin 10.0 mg/kg/day.
(§2) Above drugs were firstly solved in DMSO, then suspended in 0.5% carboxymethylcellulose solution, mixed homogeneously, and then were administered via gavage, once a day. Mice were weighted once a week, and ingestion amounts were recorded, and drug doses were adjusted according to weight, interfering for 15 weeks. All the animal were sacrificed in 30th week.
apo E^−/^− mouse serum sample: apo E^−/^− mice were interfered by drug for 15 weeks, then were fasted for 12 hours before sampling. Before being sacrificed, mice were anesthetized by 0.5-1.0 mL 1% Pentobarbital via abdominal cavity, and under sterile condition, 1.5 mL blood form their eye sockets venous plexus was sampled, and centrifugated at 2500 r/min for 10 minutes, and then serum was separated, and frozen and stored at −80° C., for determining blood fat concentrations and inflammatory markers in serum.
• blood fat assay: TC, TG, HDL-C, and LDL-C concentrations in serum were determined by applying Olympus Au2700 fully automatic biochemical appearance. • serum inflammatory markers assay: hs-CRP and sCD40L concentrations were determined by applying double antibody sandwich ELISA, in accordance with ELISA kit operating instruction (hs-CRP ELISA kit bought from Herrenberg company, Germany; sCD40L ELISA kit bought from Bender Medsystems company, Austria). • real-time quantitative PCR analysis was carried out on expression of CD36, perilipin, ABCA1, LXRα, MMP-9 and NF-κ B mRNA in apo E^−/^− mouse aorta (a reference method: Zhang Yiguan, Li Xiaohui, Fan Jishan, Zhang Haigang, Li Shuhui, Liao Wenqiang, Pang Yan, Jia Yi. Total panax notoginsenosides suppress atherosclerosis formation in rats by means of antiinflammatory and blood fat regulating action. Progress in Modern Biomedicine. 2007, 27 (11): 1601-1607)0 • morphology index image analysis: When slices were HE stained, under X40 fold ordinary light microscope, artery atherosclerosis plaque area of each incisal surface was determined by “Image Pro Plus 5.0” image analysis software. Plaque area (PA), vessel cross section area (CVA), lipid core area (LCA), and minimal fibrous cap thickness (mFCT) were measured, and corrected plaque area (plaque area/vessel cross section area, PA/CVA) and corrected lipid core area (lipid core area/plaque area, LCA/PA) were calculated, and average of 4 incisal surfaces was taken for each sample. […]

hs-CRP = assay: Serum hs-CRP by double antibody sandwich ELISA in apo E−/− mice; type: in vivo, mouse; conditions: 15 weeks
Experimental: as §1
(§3) 5 mice of apo E^−/^− mice raised for 15 weeks were randomly selected and sacrificed, root of aorta of which was taken, and replication condition in AS model was observed by HE staining. The remaining mice were randomly divided into 5 groups as follows (n=15): […]
as §2, with “All the animal were sacrificed in 30th week.” left out
(§4) • blood fat assay: TC, TG, HDL-C, and LDL-C concentrations in serum were determined by applying Olympus Au2700 fully automatic biochemical appearance. • serum inflammatory markers assay: hs-CRP and sCD40L concentrations were determined by applying double antibody sandwich ELISA, in accordance with ELISA kit operating instruction (hs-CRP ELISA kit bought from Herrenberg company, Germany; sCD40L ELISA kit bought from Bender Medsystems company, Austria). • real-time quantitative PCR analysis was carried out on expression of CD36, perilipin, ABCA1, LXRα, MMP-9 and NF-κ B mRNA in apo E^−/^− mouse aorta (a reference method: Zhang Yiguan, Li Xiaohui, Fan Jishan, Zhang Haigang, Li Shuhui, Liao Wenqiang, Pang Yan, Jia Yi. […] 2007, 27 (11): 1601-1607)0 • morphology index image analysis: When slices were HE stained, under X40 fold ordinary light microscope, artery atherosclerosis plaque area of each incisal surface was determined by “Image Pro Plus 5.0” image analysis software. […]

sCD40L = assay: Serum sCD40L by double antibody sandwich ELISA in apo E−/− mice; type: in vivo, mouse; conditions: 15 weeks
Experimental: as §1, §3
as §2, with “All the animal were sacrificed in 30th week.” left out
as §4

LXRα mRNA = assay: Real-time quantitative PCR of LXRα mRNA in apo E−/− mouse aorta; type: in vivo; conditions: apo E−/− mice, 15 weeks
Experimental: as §1, §3
as §2, with “All the animal were sacrificed in 30th week.” left out
(§5) • blood fat assay: TC, TG, HDL-C, and LDL-C concentrations in serum were determined by applying Olympus Au2700 fully automatic biochemical appearance. • serum inflammatory markers assay: hs-CRP and sCD40L concentrations were determined by applying double antibody sandwich ELISA, in accordance with ELISA kit operating instruction (hs-CRP ELISA kit bought from Herrenberg company, Germany; sCD40L ELISA kit bought from Bender Medsystems company, Austria). • real-time quantitative PCR analysis was carried out on expression of CD36, perilipin, ABCA1, LXRα, MMP-9 and NF-κ B mRNA in apo E^−/^− mouse aorta (a reference method: Zhang Yiguan, Li Xiaohui, Fan Jishan, Zhang Haigang, Li Shuhui, Liao Wenqiang, Pang Yan, Jia Yi. […] 2007, 27 (11): 1601-1607)0 • morphology index image analysis: When slices were HE stained, under X40 fold ordinary light microscope, artery atherosclerosis plaque area of each incisal surface was determined by “Image Pro Plus 5.0” image analysis software. […] As to Masosn staining, aortic root collagen area (CA) was measured by “Image Pro Plus 5.0” image analysis software, and collagen vessel area ratio (CA/CVA) was calculated. […]

ABCA1 mRNA = assay: Real-time quantitative PCR of ABCA1 mRNA in apo E−/− mouse aorta; type: in vivo; conditions: apo E−/− mice, 15 weeks
Experimental: as §1, §3
as §2, with “All the animal were sacrificed in 30th week.” left out
as §5

NF-κB mRNA = assay: Real-time quantitative PCR of NF-κB mRNA in apo E−/− mouse aorta; type: in vivo; conditions: apo E−/− mice, 15 weeks
Description: Total RNA sample of root of aorta of apo E^−/^− mouse: Total RNA samples of root of aorta in each group mouse were extracted, and utilized for analysis of gene expression of various lipid metabolic factors, inflammatory factors, and nucleic transcription factors associated with AS plaque development.

[1] = system: AS plaque in apo E−/− mouse aorta; assay: Sudan IV staining of aorta, proportion of plaque area in arteria lining endothelium area; type: in vivo; conditions: apo E−/− mice, 15 weeks
Description: Tissues of apo E^−/^− mice were sliced for AS plaque pathology: blood of eye sockets venous plexus of apo E−/− mice was sampled before the mice was sacrificed by cervical dislocation, and aorta was fixed by converse infusion of physiological saline comprising 4% paraformaldehyde into left ventricle, and then whole aorta was cut off from root of aorta to terminal end of abdomen aorta. Root of aorta was taken, and embedded routinely by paraffin, and slices of thickness of 5 μm were continuously cut off from root of aorta, and were subjected separately to HE staining, and MASSON staining, and then were utilized for AS plaque morphological index analysis of aortic valve cross section.
Pathological staining: □sequent 2 pieces of slices were picked up from each incisal surface of sequent paraffin slices of aorta root per mouse, and were separately subjected to HE staining, and MASSON staining, and were observed under light microscope. □remaining aorta was stained by Sudan IV, and was observed under light microscope.

[2] = C-K high dose 50.0 mg/kg/day gavage
[3] = C-K middle dose 25.0 mg/kg/day gavage
[4] = simvastatin 10.0 mg/kg/day gavage

CC(C)=CCC[C@](C)(OC1OC(CO)C(O)C(O)C1O)C1CC[C@]2(C)C1[C@H](O)CC1[C@@]3(C)CC[C@H](O)C(C)(C)C3CC[C@]12C (stereo partly drawn) [C-K, 20-O-β-D-glucopyranosyl 20-(S)-protopanaxadiol]
action in regulating blood fat compared with simvastatin (apo E−/− mouse; C-K 12.5-50.0 mg/kg/day vs simvastatin 10.0 mg/kg/day): not as good as that of simvastatin | HDL-C in serum (apo E−/− mouse; [2]): 4.42 ± 1.06^a mmol/L | LDL-C in serum (apo E−/− mouse; [2]): 6.11 ± 1.18^a mmol/L | TC in serum (apo E−/− mouse; [2]): 20.48 ± 4.34^b mmol/L | TC-HDL/HDL (apo E−/− mouse; [2]): 3.63 ± 0.10^b | TG in serum (apo E−/− mouse; [2]): 2.19 ± 0.51^b mmol/L | TG in serum (apo E−/− mouse; C-K low dose 12.5 mg/kg/day gavage, model 2.65 ± 0.39): 2.32 ± 0.41^a mmol/L | HDL-C in serum (apo E−/− mouse; C-K low dose 12.5 mg/kg/day gavage, model 3.79 ± 1.17): 4.08 ± 1.32^a mmol/L | TC-HDL/HDL (apo E−/− mouse; C-K low dose 12.5 mg/kg/day gavage, model 5.24 ± 0.36): 4.34 ± 0.16^a | LDL-C in serum (apo E−/− mouse; C-K low dose 12.5 mg/kg/day gavage, model 6.99 ± 1.09): 6.45 ± 1.30^a mmol/L | TC in serum (apo E−/− mouse; C-K low dose 12.5 mg/kg/day gavage, model 23.59 ± 3.79): 21.79 ± 4.53^a mmol/L | HDL-C in serum (apo E−/− mouse; [3]): 4.12 ± 1.15^a mmol/L | LDL-C in serum (apo E−/− mouse; [3]): 6.34 ± 1.22^a mmol/L | TC in serum (apo E−/− mouse; [3]): 21.29 ± 4.44^a mmol/L | TC-HDL/HDL (apo E−/− mouse; [3]): 4.17 ± 0.13^b | TG in serum (apo E−/− mouse; [3]): 2.28 ± 0.32^a mmol/L | hs-CRP concentration in serum (hs-CRP; [2]): 6.14 ± 0.29^a ng/mL | hs-CRP concentration in serum (hs-CRP; C-K low dose 12.5 mg/kg/day gavage, model 8.13 ± 0.51): 6.68 ± 0.54^a ng/mL | hs-CRP concentration in serum (hs-CRP; [3]): 6.49 ± 0.36^a ng/mL | sCD40L concentration in serum (sCD40L; [2]): 5.19 ± 0.19^a ng/mL | sCD40L concentration in serum (sCD40L; C-K low dose 12.5 mg/kg/day gavage, model 6.15 ± 0.21): 5.51 ± 0.35^a ng/mL | sCD40L concentration in serum (sCD40L; [3]): 5.34 ± 0.32^a ng/mL | expression of LXRα mRNA in aorta (relative concentrations) (LXRα mRNA; [2]): 1.36 ± 0.06^b | expression of LXRα mRNA in aorta (relative concentrations) (LXRα mRNA; C-K low dose 12.5 mg/kg/day gavage, model 0.87 ± 0.06): 1.26 ± 0.05^b | expression of LXRα mRNA in aorta (relative concentrations) (LXRα mRNA; [3]): 1.33 ± 0.05^b | expression of ABCA1 mRNA in aorta (relative concentrations) (ABCA1 mRNA; [2]): 1.34 ± 0.13^b | expression of ABCA1 mRNA in aorta (relative concentrations) (ABCA1 mRNA; C-K low dose 12.5 mg/kg/day gavage, model 0.65 ± 0.18): 1.08 ± 0.15^b | expression of ABCA1 mRNA in aorta (relative concentrations) (ABCA1 mRNA; [3]): 1.19 ± 0.18^b | expression of NF-κB mRNA in aorta (relative concentrations) (NF-κB mRNA; [2]): 0.69 ± 0.16^b | expression of NF-κB mRNA in aorta (relative concentrations) (NF-κB mRNA; C-K low dose 12.5 mg/kg/day gavage, model 1.27 ± 0.18): 0.90 ± 0.19^b | expression of NF-κB mRNA in aorta (relative concentrations) (NF-κB mRNA; [3]): 0.78 ± 0.23^b | plaque area/ arteria lining endothelium area [1, 2]: 6.73 ± 0.65^b % | plaque area/ arteria lining endothelium area ([1]; C-K low dose 12.5 mg/kg/day gavage, model 12.24 ± 0.45): 9.28 ± 0.39^b % | plaque area/ arteria lining endothelium area [1, 3]: 9.54 ± 0.21^b %

CCC(C)(C)C(=O)O[C@H]1C[C@@H](C)C=C2C=C[C@H](C)[C@H](CC[C@@H]3C[C@@H](O)CC(=O)O3)[C@H]21 [simvastatin, reference compound]
HDL-C in serum (apo E−/− mouse; [4]): 3.80 ± 1.12 mmol/L | LDL-C in serum (apo E−/− mouse; [4]): 1.73 ± 1.36^b mmol/L | TC in serum (apo E−/− mouse; [4]): 13.62 ± 4.49^b mmol/L | TC-HDL/HDL (apo E−/− mouse; [4]): 2.58 ± 0.18^b | TG in serum (apo E−/− mouse; [4]): 1.34 ± 0.46^b mmol/L | hs-CRP concentration in serum (hs-CRP; [4]): 4.57 ± 0.68^b ng/mL | sCD40L concentration in serum (sCD40L; [4]): 4.59 ± 0.37^b ng/mL | expression of LXRα mRNA in aorta (relative concentrations) (LXRα mRNA; [4]): 0.95 ± 0.07 | expression of ABCA1 mRNA in aorta (relative concentrations) (ABCA1 mRNA; [4]): 0.78 ± 0.12^a | expression of NF-κB mRNA in aorta (relative concentrations) (NF-κB mRNA; [4]): 0.89 ± 0.16^b | plaque area/ arteria lining endothelium area [1, 4]: 6.31 ± 0.19^b %
